This passage reports T/C results from PubChem BioAssay AID330 (DTP/NCI, 2004).

This assay has as its system P388 leukemia ip, CD2F1 mice, survival T/C. Put plainly: NCI In Vivo Anticancer Drug Screen. Data for tumor model P388 Leukemia (intraperitoneal) in CD2F1 (CDF1) mice. To be noted: endpoint: median survival time, higher = longer survival. An outline of the steps:
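Mice carrying the transplanted tumor received test compound or vehicle. Survival was recorded in each group, and the value is the treated-group measurement divided by that of the vehicle-treated control group.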

[1] abbreviates: dose: 25.0 mg/kg/injection, schedule: Q01DX009 (ip), vehicle: Klucel (hydroxypropylcellulose) (HPC).
Setting [2] is: dose: 50.0 mg/kg/injection, schedule: Q01DX009 (ip), vehicle: Klucel (hydroxypropylcellulose) (HPC).
[3] abbreviates: dose: 100.0 mg/kg/injection, schedule: Q01DX005 (ip), vehicle: saline with Tween-80.
[4] abbreviates: dose: 200.0 mg/kg/injection, schedule: Q01DX005 (ip), vehicle: saline with Tween-80.
[5] abbreviates: dose: 50.0 mg/kg/injection, schedule: Q01DX009 (ip), vehicle: saline.
The mark [6] stands for this setting: dose: 100.0 mg/kg/injection, schedule: Q01DX009 (ip), vehicle: saline.
The mark [7] stands for this setting: dose: 200.0 mg/kg/injection, schedule: Q01DX009 (ip), vehicle: saline.
Setting [8] is: dose: 50.0 mg/kg/injection, schedule: Q01DX009 (ip), vehicle: saline with Tween-80.
[9] abbreviates: dose: 100.0 mg/kg/injection, schedule: Q01DX009 (ip), vehicle: saline with Tween-80.
[10] abbreviates: dose: 200.0 mg/kg/injection, schedule: Q01DX009 (ip), vehicle: saline with Tween-80.
Where [11] appears, read: dose: 12.5 mg/kg/injection, schedule: Q01DX009 (ip), vehicle: saline with Tween-80.
Where [12] appears, read: dose: 25.0 mg/kg/injection, schedule: Q01DX009 (ip), vehicle: saline with Tween-80.
The mark [13] stands for this setting: dose: 60.0 mg/kg/injection, schedule: Q01DX005 (ip), vehicle: saline with Tween-80.
The mark [14] stands for this setting: dose: 120.0 mg/kg/injection, schedule: Q01DX005 (ip), vehicle: saline with Tween-80.
The mark [15] stands for this setting: dose: 25.0 mg/kg/injection, schedule: Q01DX005 (ip), vehicle: Klucel (hydroxypropylcellulose) (HPC).
The mark [16] stands for this setting: dose: 50.0 mg/kg/injection, schedule: Q01DX005 (ip), vehicle: Klucel (hydroxypropylcellulose) (HPC).
Where [17] appears, read: dose: 100.0 mg/kg/injection, schedule: Q01DX005 (ip), vehicle: Klucel (hydroxypropylcellulose) (HPC).
[18] abbreviates: dose: 200.0 mg/kg/injection, schedule: Q01DX005 (ip), vehicle: Klucel (hydroxypropylcellulose) (HPC).

Structures are written as SMILES. Several values for one entry are separate records, joined by “and”; a condition that tells them apart may be missing. Identical values can stand only once. Toxic doses and inconclusive results are not listed.

Consider `CC(C)(O)[C@H]1[C@@H]2OC(=O)[C@H]1[C@]1(O)C[C@H]3OC34C(=O)O[C@H]2[C@@]41C` (stereo partly specified) (tested in a mixture with another compound), for which the T/C (dose: 0.25 mg/kg/injection, schedule: Q01DX009 (ip), vehicle: Klucel (hydroxypropylcellulose) (HPC)) is 99 % of control; the T/C (dose: 0.5 mg/kg/injection, schedule: Q01DX009 (ip), vehicle: Klucel (hydroxypropylcellulose) (HPC)) was 113 % of control; the T/C (dose: 1.0 mg/kg/injection, schedule: Q01DX009 (ip), vehicle: Klucel (hydroxypropylcellulose) (HPC)) is 100 % of control; the T/C (dose: 2.0 mg/kg/injection, schedule: Q01DX009 (ip), vehicle: Klucel (hydroxypropylcellulose) (HPC)) was 96 % of control; the T/C under setting [1] was 99 % of control; the T/C under setting [2] is 105 % of control. Besides, the T/C (dose: 100.0 mg/kg/injection, schedule: Q01DX009 (ip), vehicle: Klucel (hydroxypropylcellulose) (HPC)) is 106 % of control and the T/C (dose: 200.0 mg/kg/injection, schedule: Q01DX009 (ip), vehicle: Klucel (hydroxypropylcellulose) (HPC)) is 96 % of control.
Take `NC(CCCCNC(=O)c1ccccc1)C(=O)O` (stereo unspecified): the T/C (dose: 50.0 mg/kg/injection, schedule: Q01DX005 (ip), vehicle: saline with Tween-80) is 101 % of control; the T/C under setting [3] is 93 % of control; the T/C under setting [4] is 99 % of control.
With `CC1C2C=CC1C=C2` (stereo unspecified), the T/C is 98 % of control under setting [5], 91 % of control under setting [6] and 98 % of control under setting [7].
On to `CC(=O)C1(c2ccccc2)CCN(c2c3ccccc3nc3ccccc23)CC1`, for which the T/C is 108 % of control (dose: 100.0 mg/kg/injection, schedule: Q04DX003 (ip), vehicle: Klucel (hydroxypropylcellulose) (HPC)) and 111 % of control (dose: 200.0 mg/kg/injection, schedule: Q04DX003 (ip), vehicle: Klucel (hydroxypropylcellulose) (HPC)).
As for `CCCCCC(CN(C)C)C(=O)/C=C/c1ccc(OC)cc1` (stereo unspecified), the T/C was 101 % of control (dose: 50.0 mg/kg/injection, schedule: Q01DX005 (ip), vehicle: saline); 104 % of control (dose: 100.0 mg/kg/injection, schedule: Q01DX005 (ip), vehicle: saline); 96 % of control (dose: 200.0 mg/kg/injection, schedule: Q01DX005 (ip), vehicle: saline).
As for `O=c1[nH]nc(NCCCCO)c2ccccc12`, the T/C reads like this: under setting [8], 95 % of control; under setting [9], 95 % of control; under setting [10], 91 % of control.
Consider `c1ccc(N/N=C2/CCN3CCCc4cccc2c43)cc1`, for which the T/C is 100 % of control (dose: 12.5 mg/kg/injection, schedule: Q04DX003 (ip), vehicle: DMSO); 101 % of control (dose: 25.0 mg/kg/injection, schedule: Q04DX003 (ip), vehicle: DMSO); 110 % of control (dose: 50.0 mg/kg/injection, schedule: Q04DX003 (ip), vehicle: DMSO).
On to `CC(=O)[O][Hg][c]1cc(-c2ccc(N=Nc3c(S(=O)(=O)O)cc4cccc(N)c4c3O)cc2)ccc1N=Nc1c(S(=O)(=O)O)cc2cccc(N)c2c1O`, for which the T/C by setting is: (dose: 3.13 mg/kg/injection, schedule: Q04DX003 (ip), vehicle: saline with Tween-80) 90 % of control; (dose: 6.25 mg/kg/injection, schedule: Q04DX003 (ip), vehicle: saline with Tween-80) 95 % of control.
On to `COc1cc(-c2c(C#N)c(OC)[nH]c(=O)c2C#N)cc(OC)c1OC`, for which the T/C was 105 % of control under setting [11]; 102 % of control under setting [12]; 102 % of control and 105 % of control under setting [8]; 96 % of control under setting [9]; 95 % of control under setting [10].
For `CCCCN=NN(C)CCCC`, the T/C is, setting by setting: (dose: 12.5 mg/kg/injection, schedule: Q01DX005 (ip), vehicle: saline with Tween-80) 107 % of control; (dose: 25.0 mg/kg/injection, schedule: Q01DX005 (ip), vehicle: saline with Tween-80) 117 % of control.
With `CCOC(=O)c1cc(/C=C/c2ccc(Cl)cc2)on1`, the T/C by setting is: under setting [13], 91 % of control; under setting [14], 90 % of control.
In the case of `CC(=O)OC(C)CCCCCCCCCCCCCCC1=C(C)C(=O)OC1=O` (stereo unspecified), the T/C runs as follows: under setting [15], 99 % of control; under setting [16], 106 % of control; under setting [17], 108 % of control; under setting [18], 105 % of control; (dose: 400.0 mg/kg/injection, schedule: Q01DX005 (ip), vehicle: Klucel (hydroxypropylcellulose) (HPC)) 101 % of control.
In the case of `CCCCCC/C(CC(SCC)c1ccccc1Cl)=N\NC(N)=S` (stereo unspecified), the T/C was 91 % of control under setting [13]; 96 % of control under setting [14]; 91 % of control (dose: 240.0 mg/kg/injection, schedule: Q01DX005 (ip), vehicle: saline with Tween-80).
For the compound `Cc1cc(C)n(/C(N)=N/[N+](=O)[O-])n1`, the T/C under setting [5] was 96 % of control, the T/C under setting [6] is 105 % of control and the T/C under setting [7] is 86 % of control.
With `CCOC(=O)C(C#N)c1cc(O)c(O)c2ccc(O)cc12` (stereo unspecified), the T/C (dose: 100.0 mg/kg/injection, schedule: Q01DX001 (ip), vehicle: saline with Tween-80) is 97 % of control; the T/C (dose: 200.0 mg/kg/injection, schedule: Q01DX001 (ip), vehicle: saline with Tween-80) is 107 % of control; the T/C (dose: 400.0 mg/kg/injection, schedule: Q01DX001 (ip), vehicle: saline with Tween-80) is 106 % of control.
With `O=C1C(CCl)=CS(=O)(=O)c2ccccc21`, the T/C (dose: 6.25 mg/kg/injection, schedule: Q01DX009 (ip), vehicle: saline) was 109 % of control; the T/C (dose: 12.5 mg/kg/injection, schedule: Q01DX009 (ip), vehicle: saline) is 116 % of control; the T/C (dose: 25.0 mg/kg/injection, schedule: Q01DX009 (ip), vehicle: saline) is 100 % of control.
Regarding `COc1cc(/C=N\NC(=O)c2cccc(Cl)c2)ccc1N(CCCl)CCCl`, the T/C is, setting by setting: (dose: 200.0 mg/kg/injection, schedule: Q04DX003 (ip), vehicle: saline with Tween-80) 163 % of control; (dose: 264.0 mg/kg/injection, schedule: Q04DX003 (ip), vehicle: saline with Tween-80) 154 % of control; (dose: 400.0 mg/kg/injection, schedule: Q04DX003 (ip), vehicle: saline with Tween-80) 172 % of control and 195 % of control; (dose: 600.0 mg/kg/injection, schedule: Q04DX003 (ip), vehicle: saline with Tween-80) 154 % of control.
For `COC1OC(COC(=O)c2ccccc2)C(=O)C(OC(=O)c2ccccc2)C1N(O)C1C(COC(=O)c2ccccc2)OC2OC(C)(C)OC21` (stereo unspecified), the T/C under setting [16] was 101 % of control, the T/C under setting [17] is 105 % of control and the T/C under setting [18] was 100 % of control.
For the compound `Nc1nc(-c2ccccc2)c(Br)c(=O)[nH]1`, the T/C under setting [3] is 112 % of control; the T/C under setting [4] was 105 % of control; the T/C (dose: 400.0 mg/kg/injection, schedule: Q01DX005 (ip), vehicle: saline with Tween-80) is 100 % of control.
For the compound `NC(Cc1ccc(OC(c2ccccc2)c2ccccc2)cc1)C(=O)O` (stereo unspecified), the T/C is, setting by setting: under setting [11], 116 % of control; under setting [12], 98 % of control; under setting [8], 88 % of control; under setting [9], 95 % of control; under setting [10], 97 % of control.
Consider `CC(=O)OCCCN1/C(=C/C=C2\CCC(/C=C/c3sc4cc5ccccc5cc4[n+]3CCCOC(C)=O)=C2N(c2ccccc2)c2ccccc2)Sc2cc3ccccc3cc21`, for which the T/C is, setting by setting: (dose: 12.5 mg/kg/injection, schedule: Q01DX009 (ip), vehicle: Klucel (hydroxypropylcellulose) (HPC)) 110 % of control; under setting [1], 110 % of control; under setting [2], 111 % of control.
Take `CC1(C)CCC2(C(=O)OC3OC(CO)C(O)C(O)C3O)CCC3(C)C(=CCC4C5(C)CCC(OC6OC(CO)C(O)C(O)C6O)C(C)(C)C5CCC43C)C2C1` (stereo unspecified): the T/C (dose: 3.12 mg/kg/injection, schedule: Q01DX005 (ip), vehicle: Klucel (hydroxypropylcellulose) (HPC)) was 98 % of control; the T/C (dose: 6.25 mg/kg/injection, schedule: Q01DX005 (ip), vehicle: Klucel (hydroxypropylcellulose) (HPC)) is 104 % of control; the T/C (dose: 12.5 mg/kg/injection, schedule: Q01DX005 (ip), vehicle: Klucel (hydroxypropylcellulose) (HPC)) was 104 % of control; the T/C under setting [15] is 95 % of control; the T/C under setting [16] is 102 % of control.
